Tested on: COX-2 gene expression
Experiment: Effects of test compounds on COX-2 gene expression in gastric cancer cell line MKN-45 (real-time PCR)
Format: cell-based, human
Details: MKN-45 cells, test compound 1 μM, 16 hours, vs DMSO control = 100%, mean of triplicate
Protocol: The human gastric cancer cell line MKN-45 obtained from JCRB (Japanese Collection of Research Bioresources) was cultured in Iscove's Modified Dulbecco's Medium (product of GIBCO) containing 10% fetal calf serum for 24 hours using a 6-well plate and a 5% CO2 incubator (37° C., 5% CO2). Test compound solutions prepared by diluting each test compound with DMSO (solvent) to a final concentration of 1 μM, and the same amount of DMSO as a control solution (containing no test compound) were added to the wells of the 6-well plate, and the cells were cultured in a CO2 incubator (37° C., 5% CO2) for 16 hours.
The cells were recovered, and Total RNA was prepared from the cells using Trizole reagent (product of Invitrogen) according to the standard method. Real-time PCR was performed using TaqManO Gene Expression Assays for human COX-2 (product of Applied Biosystems), and the amount of COX-2 mRNA in each test-compound-treated cell were determined. […]
PCR was performed according to the manufacturer's instructions for TaqMan® Gene Expression Assays (product of Applied Biosystems). […] The amount of each mRNA was determined from the calibration curve using the ABI PRISM 7000 Sequence Detection System. […]

Q: Which “COX-2 gene expression inhibition (%)” value does the source give for `COc1ccc(CC2SC(=S)NC2=O)c2c1N(CCC(C)C)C(=O)CC2` (stereo not shown) [Test Compound 965] here?
A: Its value is greater than 20%.

Source: patent US20090326008A1, “NF-kappa B Inhibitor” (priority 2006, published 2009)
